# Experimental data published in US8580794B2 (AbbVie Inc., priority 2009, dated 2013).
# Where two headings read alike, the source gives them in different places.
# Columns and labels:
# [1] = target: GST-Bc1-2 (Homo sapiens, UniProt P10415); test: Time Resolved-Fluorescence Resonance Energy Transfer (TR-FRET) Bcl-2 binding assay with F-Bak peptide probe
# [2] = system: RS4;11 cells; test: RS4;11 Cell Viability Assay (CellTiter Glo); type: cell-based; settings: 10% human serum;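 also: RS4,11 acute lymphoblastic leukemia cells, viability as percent of untreated control cells, EC50 for loss of viable cells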
# Method: The acute lymphoblastic leukemia (ALL) cell line RS4;11 was used as the primary human cell line to assess the cellular activity of Bcl-2 selective agents in vitro and their efficacy in vivo.
# Cell cytotoxicity EC50 values were assessed using CellTiter Glo (Promega) according to the manufacturer's recommendations. The EC50 values were determined as a percentage of viable cells following treatment compared to the untreated control cells.
# [3] = GST-Bcl-2 1 nM, F-Bak probe 100 nM, Tb-anti-GST 1 nM, '<' = below limit of detection, read-out: TR-FRET Bcl-2 Binding Ki
# [4] = Homo sapiens, RS4-11, 48 h, 50,000 cells per well
# GST-Bc1-2, sequence (P10415 whole entry): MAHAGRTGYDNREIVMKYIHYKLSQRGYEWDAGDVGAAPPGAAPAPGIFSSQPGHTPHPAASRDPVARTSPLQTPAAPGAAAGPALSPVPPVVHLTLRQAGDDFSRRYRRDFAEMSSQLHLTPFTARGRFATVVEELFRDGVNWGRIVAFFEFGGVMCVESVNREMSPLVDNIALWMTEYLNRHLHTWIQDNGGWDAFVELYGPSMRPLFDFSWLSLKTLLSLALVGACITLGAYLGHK
SMILES,"Ki [1, 3] [nM]","EC50 [2, 4] [nM]","EC50 ([2]; 50,000 cells per well, 48 hours) [nM]",Ki ([1]; read-out: Bcl-2 FRET ki) [nM]
"CC1(C)CCC(CN2CCN(c3ccc(C(=O)NS(=O)(=O)c4cnc(OCC5CCC6(CC5)CNC(=O)O6)c(Cl)c4)c(Oc4cnc5[nH]ccc5c4)c3)CC2)=C(c2ccc(Cl)cc2)C1 (single isomer, unassigned) [Example 396, N-[(5-chloro-6-{[(5r,8r)-2-oxo-1-oxa-3-azaspiro[4.5]dec-8-yl]methoxy}pyridin-3-yl)sulfonyl]-4-(4-{[2-(4-chlorophenyl)-4,4-dimethylcyclohex-1-en-1-yl]methyl}piperazin-1-yl)-2-(1H-pyrrolo[2,3-b]pyridin-5-yloxy)benzamide]",0.014,84.1,–,–
"CC1(C)CCC(CN2CCN(c3ccc(C(=O)NS(=O)(=O)c4cnc(OCC5CCC6(CC5)CNC(=O)O6)c(Cl)c4)c(Oc4cnc5[nH]ccc5c4)c3)CC2)=C(c2ccc(Cl)cc2)C1 (single isomer, unassigned) [Example 397, N-[(5-chloro-6-{[(5s,8s)-2-oxo-1-oxa-3-azaspiro[4.5]dec-8-yl]methoxy}pyridin-3-yl)sulfonyl]-4-(4-{[2-(4-chlorophenyl)-4,4-dimethylcyclohex-1-en-1-yl]methyl}piperazin-1-yl)-2-(1H-pyrrolo[2,3-b]pyridin-5-yloxy)benzamide]",0.041,–,113,–
"CC1(C)CCC(CN2CCN(c3ccc(C(=O)NS(=O)(=O)c4cnc(NC5CCN(C6CCOCC6)CC5)c(Br)c4)c(Oc4cnc5[nH]ccc5c4)c3)CC2)=C(c2ccc(Cl)cc2)C1 [Example 61, N-({5-bromo-6-[(1-tetrahydro-2H-pyran-4-ylpiperidin-4-yl)amino]pyridin-3-yl}sulfonyl)-4-(4-{[2-(4-chlorophenyl)-4,4-dimethylcyclohex-1-en-1-yl]methyl}piperazin-1-yl)-2-(1H-pyrrolo[2,3-b]pyridin-5-yloxy)benzamide]",0.091,183,–,–
"O=C(NS(=O)(=O)c1ccc(NCC2CCOCC2)c([N+](=O)[O-])c1)c1ccc(N2CCN(Cc3ccccc3-c3ccc(Cl)cc3)CC2)cc1Oc1ccc2[nH]ccc2c1 [Example 87, 4-{4-[(4′-chloro-1,1′-biphenyl-2-yl)methyl]piperazin-1-yl}-2-(1H-indol-5-yloxy)-N-({3-nitro-4-[(tetrahydro-2H-pyran-4-ylmethyl)amino]phenyl}sulfonyl)benzamide]",0.618,1180,–,0.618
"CC1(C)CCC(CN2CCN(c3ccc(C(=O)NS(=O)(=O)c4ccc(NN5CCS(=O)(=O)CC5)c([N+](=O)[O-])c4)c(Oc4cnc5[nH]ccc5c4)c3)CC2)=C(c2ccc(Cl)cc2)C1 [Example 107, Trans-4-(4-{[2-(4-chlorophenyl)-4,4-dimethylcyclohex-1-en-1-yl]methyl}piperazin-1-yl)-N-({4-[(1,1-dioxidothiomorpholin-4-yl)amino]-3-nitrophenyl}sulfonyl)-2-(1H-pyrrolo[2,3-b]pyridin-5-yloxy)benzamide]",0.035,61.2,–,–
"CC1(C)CCC(CN2CCN(c3ccc(C(=O)NS(=O)(=O)c4ccc(N[C@@H]5CCN(CCF)C5)c([N+](=O)[O-])c4)c(Oc4cnc5[nH]ccc5c4)c3)CC2)=C(c2ccc(Cl)cc2)C1 [Example 183, 4-(4-{[2-(4-chlorophenyl)-4,4-dimethylcyclohex-1-en-1-yl]methyl}piperazin-1-yl)-N-[(4-{[(3R)-1-(2-fluoroethyl)pyrrolidin-3-yl]amino}-3-nitrophenyl)sulfonyl]-2-(1H-pyrrolo[2,3-b]pyridin-5-yloxy)benzamide]",< 0.01,17.5,–,–
"CC1(C)CCC(CN2CCN(c3ccc(C(=O)NS(=O)(=O)c4ccc(OC[C@H]5CC[C@H](O)CC5)c([N+](=O)[O-])c4)c(Oc4cnc5[nH]ccc5c4)c3)CC2)=C(c2ccc(Cl)cc2)C1 [Example 196, Trans-4-(4-{[2-(4-chlorophenyl)-4,4-dimethylcyclohex-1-en-1-yl]methyl}piperazin-1-yl)-N-({4-[(4-hydroxycyclohexyl)methoxy]-3-nitrophenyl}sulfonyl)-2-(1H-pyrrolo[2,3-b]pyridin-5-yloxy)benzamide]",–,1.72,–,–
"CC1(C)CCC(CN2CCN(c3ccc(C(=O)NS(=O)(=O)c4ccc(NCC5CCC(C)(O)CC5)c([N+](=O)[O-])c4)c(Oc4cnc5[nH]ccc5c4)c3)CC2)=C(c2ccc(Cl)cc2)C1 (stereo not drawn) [Example 337, 4-(4-{[2-(4-chlorophenyl)-4,4-dimethylcyclohex-1-en-1-yl]methyl}piperazin-1-yl)-N-[(4-{[(trans-4-hydroxy-4-methylcyclohexyl)methyl]amino}-3-nitrophenyl)sulfonyl]-2-(1H-pyrrolo[2,3-b]pyridin-5-yloxy)benzamide]",–,1.76,–,–
"CC1(O)CCC(COc2ncc(S(=O)(=O)NC(=O)c3ccc(N4CCN(CC5=C(c6ccc(Cl)cc6)CC6(CC5)CC6)CC4)cc3Oc3cnc4[nH]ccc4c3)cc2Cl)CC1 (stereo not drawn) [Example 341, N-({5-chloro-6-[(trans-4-hydroxy-4-methylcyclohexyl)methoxy]pyridin-3-yl}sulfonyl)-4-(4-{[5-(4-chlorophenyl)spiro[2.5]oct-5-en-6-yl]methyl}piperazin-1-yl)-2-(1H-pyrrolo[2,3-b]pyridin-5-yloxy)benzamide]",–,31.7,–,–
"CC1(C)CCC(CN2CCN(c3ccc(C(=O)NS(=O)(=O)c4ccc(OCC5CCC(C)(O)CC5)c(Cl)c4)c(Oc4cnc5[nH]ccc5c4)c3)CC2)=C(c2ccc(Cl)cc2)C1 (stereo not drawn) [Example 362, N-({3-chloro-4-[(trans-4-hydroxy-4-methylcyclohexyl)methoxy]phenyl}sulfonyl)-4-(4-{[2-(4-chlorophenyl)-4,4-dimethylcyclohex-1-en-1-yl]methyl}piperazin-1-yl)-2-(1H-pyrrolo[2,3-b]pyridin-5-yloxy)benzamide]",–,31.7,–,–
"[2H]C1([2H])N(CC2=C(c3ccc(Cl)cc3)CC(C)(C)CC2)C([2H])([2H])C([2H])([2H])N(c2ccc(C(=O)NS(=O)(=O)c3ccc(NCC4CCOCC4)c([N+](=O)[O-])c3)c(Oc3cnc4[nH]ccc4c3)c2)C1([2H])[2H] [Example 369, 4-[4-{[2-(4-chlorophenyl)-4,4-dimethylcyclohex-1-en-1-yl]methyl}(2H8)piperazin-1-yl]-N-({3-nitro-4-[(tetrahydro-2H-pyran-4-ylmethyl)amino]phenyl}sulfonyl)-2-(1H-pyrrolo[2,3-b]pyridin-5-yloxy)benzamide]",–,8,–,–
"COC(=O)[C@H]1CC[C@H](CNc2ccc(S(=O)(=O)NC(=O)c3ccc(N4CCN(CC5=C(c6ccc(Cl)cc6)CC(C)(C)CC5)CC4)cc3Oc3cnc4[nH]ccc4c3)cc2[N+](=O)[O-])CC1 [Example 379, methyl trans-4-{[(4-{[4-(4-{[2-(4-chlorophenyl)-4,4-dimethylcyclohex-1-en-1-yl]methyl}piperazin-1-yl)-2-(1H-pyrrolo[2,3-b]pyridin-5-yloxy)benzoyl]sulfamoyl}-2-nitrophenyl)amino]methyl}cyclohexanecarboxylate]",< 0.01,19.4,–,–
"CC1(C)CCC(CN2CCN(c3ccc(C(=O)NS(=O)(=O)c4ccc(NC[C@H]5CC[C@H](C(=O)O)CC5)c([N+](=O)[O-])c4)c(Oc4cnc5[nH]ccc5c4)c3)CC2)=C(c2ccc(Cl)cc2)C1 [Example 380, trans-4-{[(4-{[4-(4-{[2-(4-chlorophenyl)-4,4-dimethylcyclohex-1-en-1-yl]methyl}piperazin-1-yl)-2-(1H-pyrrolo[2,3-b]pyridin-5-yloxy)benzoyl]sulfamoyl}-2-nitrophenyl)amino]methyl}cyclohexanecarboxylic acid]",< 0.01,134,–,–
